According to publication PMC7839254 (FASEB journal : official publication of the Federation of …, 2021):
Positions count from the first letter of the chain named.

Columns and labels:
Assay in all cases: isothermal titration calorimetry
Format in all cases: binding
[1] = biological target: T1, human DIPP1 (DIPP1 1-148) (Homo sapiens, UniProt O95989)
T1 sequence (O95989 1-148): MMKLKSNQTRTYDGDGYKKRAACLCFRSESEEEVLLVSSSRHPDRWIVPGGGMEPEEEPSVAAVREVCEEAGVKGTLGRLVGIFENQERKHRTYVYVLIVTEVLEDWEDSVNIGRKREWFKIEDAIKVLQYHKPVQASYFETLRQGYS

[2] = biological target: T2, human DIPP1 (DIPP1 1-148) (Homo sapiens, UniProt O95989, K18A)
T2 sequence (O95989 1-148 K18A): T1 sequence (O95989 1-148) with K18A

[3] = biological target: T3, human DIPP1 (DIPP1 1-148) (Homo sapiens, UniProt O95989, R41A)
T3 sequence (O95989 1-148 R41A): T1 sequence (O95989 1-148) with R41A

[4] = biological target: T4, human DIPP1 (DIPP1 1-148) (Homo sapiens, UniProt O95989, R45A)
T4 sequence (O95989 1-148 R45A): T1 sequence (O95989 1-148) with R45A

[5] = biological target: T5, human DIPP1 (DIPP1 1-148) (Homo sapiens, UniProt O95989, H42A)
T5 sequence (O95989 1-148 H42A): T1 sequence (O95989 1-148) with H42A

[6] = biological target: T6, human DIPP1 (DIPP1 1-148) (Homo sapiens, UniProt O95989, H42A/R45A)
T6 sequence (O95989 1-148 H42A/R45A): T1 sequence (O95989 1-148) with H42A, R45A

SMILES	Kd [1]	Kd [2]	Kd [3]	Kd [4]	Kd [5]	Kd [6]
O=P(O)(O)O[C@@H]1[C@@H](OP(=O)(O)O)[C@H](OP(=O)(O)OP(=O)(O)O)[C@@H](OP(=O)(O)O)[C@H](OP(=O)(O)OP(=O)(O)O)[C@@H]1OP(=O)(O)O [1,5-InsP8, 1,5-bis-diphosphoinositol 2,3,4,6-tetrakisphosphate]	158 ± 9 nM	4990 ± 620 nM	460 ± 50 nM	360 ± 50 nM	510 ± 100 nM	1060 ± 90 nM
O=P(O)(O)O[C@@H]1[C@@H](OP(=O)(O)OP(=O)(O)O)[C@H](OP(=O)(O)O)[C@@H](OP(=O)(O)O)[C@@H](O)[C@H]1OP(=O)(O)O [5-PP-InsP4, 5-diphosphoinositol 1,3,4,6-tetrakisphosphate]	251 ± 31 nM					
